# From paper PMC12655637, “Design, Synthesis, and Mechanistic Study of Novel Ciprofloxacin/Thiazole Chalcone Hybrids as Potential Anticancer Agents” (Pharmaceuticals, 2025)
# Legend:
# Assay in all cases: NCI-60 screening, one-dose (10 µM) and five-dose, SRB
# [1] = test system: LOX IMVI; assay type: cell-based, human; conditions: Homo sapiens, 10 μM, Melanoma, read-out: Growth percentage
# [2] = test system: A498; assay type: cell-based; conditions: Homo sapiens, A498, 10 μM; A498, Renal Cancer; read-out: Growth percentage
# [3] = test system: SR; assay type: cell-based, human; conditions: 10 μM, Leukemia
# [4] = test system: COLO 205; assay type: cell-based, human; conditions: Homo sapiens; 10 μM; COLO 205, Colon Cancer; read-out: Growth percentage
# [5] = test system: SN12C; assay type: cell-based, human; conditions: Homo sapiens, 10 μM, Renal Cancer, read-out: Growth percentage
# [6] = test system: TK-10; assay type: cell-based, human; conditions: Homo sapiens; 10 μM; TK-10, Renal Cancer; read-out: Growth percentage
# [7] = test system: SNB-75; assay type: cell-based, human; conditions: Homo sapiens; 10 μM; SNB-75, CNS Cancer; read-out: Growth percentage
# [8] = test system: 786−0; assay type: cell-based, human; conditions: Homo sapiens; 10 μM; 786−0, Renal Cancer; read-out: Growth percentage
# [9] = test system: NCI-H460; assay type: cell-based, human; conditions: Homo sapiens, NCI-H460, 10 μM; NCI-H460, Non-Small-Cell Lung Cancer; read-out: Growth percentage
# [10] = test system: HCT-116; assay type: cell-based, human; conditions: Homo sapiens
# [11] = test system: SF-295; assay type: cell-based, human; conditions: Homo sapiens; 10 μM; SF-295, CNS Cancer; read-out: Growth percentage
# [12] = test system: MDA-MB-468; assay type: cell-based, human; conditions: Homo sapiens, MDA-MB-468, 10 μM; MDA-MB-468, Breast Cancer; read-out: Growth percentage
# Text: Control cells Test cells FLD
# available usually at NCI library.
# An aliquot of frozen drug concentrate is […]
# [13] = test system: NCI/ADR-RES; assay type: cell-based, human; conditions: Homo sapiens, 10 μM, Ovarian Cancer, read-out: Growth percentage
# [14] = test system: MDA-MB231/ATCC; assay type: cell-based; conditions: 10 μM; MDA-MB231/ATCC, Breast Cancer
# [15] = test system: RXF 393; assay type: cell-based; conditions: Homo sapiens; 10 μM; RXF 393, Renal Cancer; read-out: Growth percentage
# [16] = test system: SK-MEL-2; assay type: cell-based, human; conditions: Homo sapiens; 10 μM; SK-MEL-2, Melanoma; read-out: Growth percentage
# [17] = test system: NCI-H226; assay type: cell-based, human; conditions: Homo sapiens; 10 μM; NCI-H226, Non-Small-Cell Lung Cancer; read-out: Growth percentage
# [18] = test system: M14; assay type: cell-based, human; conditions: Homo sapiens; 10 μM; M14, Melanoma; read-out: Growth percentage
# [19] = test system: A549/ATCC; assay type: cell-based, human; conditions: Homo sapiens, 10 μM, Non-Small-Cell Lung Cancer, read-out: Growth percentage
# [20] = test system: HOP-62; assay type: cell-based, human; conditions: Homo sapiens, HOP-62, 10 μM; HOP-62, Non-Small-Cell Lung Cancer; read-out: Growth percentage
# [21] = test system: RPMI-8226; assay type: cell-based, human; conditions: Homo sapiens, RPMI-8226, 10 μM; RPMI-8226, Leukemia; read-out: Growth percentage
# [22] = test system: SW-620; assay type: cell-based, human; conditions: Homo sapiens; 10 μM; SW-620, Colon Cancer; read-out: Growth percentage
# [23] = test system: BT-549; assay type: cell-based; conditions: Homo sapiens; 10 μM; BT-549, Breast Cancer; read-out: Growth percentage
# [24] = test system: SK-MEL-5; assay type: cell-based, human; conditions: Homo sapiens; 10 μM; SK-MEL-5, Melanoma; read-out: Growth percentage
# [25] = test system: PC-3; assay type: cell-based, human; conditions: Homo sapiens; 10 μM; PC-3, Prostate Cancer; read-out: Growth percentage
# [26] = test system: CAKI-1; assay type: cell-based; conditions: Homo sapiens, CAKI-1, read-out: Growth percentage
# [27] = test system: HCT-15; assay type: cell-based, human; conditions: Homo sapiens; 10 μM; HCT-15, Colon Cancer; read-out: Growth percentage
# [28] = test system: MDA-MB-435; assay type: cell-based; conditions: Homo sapiens, MDA-MB-435, read-out: Growth percentage, 10 μM; MDA-MB-435, Melanoma
# [29] = test system: HL-60(TB); assay type: cell-based, human; conditions: Homo sapiens, HL-60, 10 μM; HL-60(TB), Leukemia; read-out: Growth percentage
# [30] = test system: OVCAR-8; assay type: cell-based, human; conditions: Homo sapiens; 10 μM; OVCAR-8, Ovarian Cancer; read-out: Growth percentage
smiles,measurement,setting,value
"Cc1nc(SCC(=O)N2CCN(c3cc4c(cc3F)c(=O)c(C(=O)O)cn4C3CC3)CC2)sc1C(=O)/C=C/c1ccc(Cl)cc1 [Compound 4c, (E)-7-(4-(2-((5-(3-(4-Chlorophenyl)acryloyl)-4-methylthiazol-2-yl)thio)acetyl)piperazin-1-yl)-1-cyclopropyl-6-fluoro-4-oxo-1,4-dihydroquinoline-3-carboxylic Acid]",activity at 10 µM,[1],80.9%
same,activity at 10 µM,[2],119%
same,Growth percentage,[3],35.32%
same,activity at 10 µM,[4],107%
same,activity at 10 µM,[5],96.7%
same,activity at 10 µM,[6],106%
same,activity at 10 µM,[7],95.6%
same,activity at 10 µM,[8],96.2%
same,activity at 10 µM,[9],106%
same,activity at 10 µM,"[10]; HCT-116, 10 μM, HCT-116, Colon Cancer, read-out: Growth percentage",61%
same,IC50,[10]; colon HCT-116,340 nM
same,activity at 10 µM,[11],102%
same,activity at 10 µM,[12],110%
same,activity at 10 µM,[13],98.9%
same,Growth percentage,[14],100.1%
same,activity at 10 µM,[15],109%
same,activity at 10 µM,[16],99.4%
same,activity at 10 µM,[17],107%
same,activity at 10 µM,[18],98.7%
same,activity at 10 µM,[19],115%
same,activity at 10 µM,[20],122%
same,activity at 10 µM,[21],7.7%
same,activity at 10 µM,[22],113%
same,activity at 10 µM,[23],85.9%
same,activity at 10 µM,[24],100%
same,activity at 10 µM,[25],100%
same,activity at 10 µM,[26],100%
same,activity at 10 µM,[27],102%
same,activity at 10 µM,[28],102%
same,activity at 10 µM,[29],92.9%
same,activity at 10 µM,[30],76.3%
